Laboratory results published in article PMC9697930 (International Journal of Molecular Sciences, 2022).

Columns and labels:
MDCKII-par cells = assay: Accumulation assay in control parent cells; type: cell-based, Canine
Protocol: The conduction of accumulation assays followed the slightly changed protocol described previously. In the study, MDCKII-par, MDCKII-ABCB1, MDCKII-ABCC1, MDCKII-ABCG2, and primary explants were seeded into 12-well plates in variant densities, 22.0 × 10^4, 15.0 × 10^4, 25.0 × 10^4, 22.0 × 10^4, and 15.0 × 10^4 cells/well, respectively. After 24 h incubation, two washing steps with 1 × PBS were applied. […] The cells were then incubated under standard conditions for 30 min. Next steps included placing the plates on ice, washing the cells with ice-cold 1 × PBS two-times, and detaching the cells with the ice-cold 10 × trypsin without phenol red. Following trypsinization, cells were resuspended in 1 × PBS containing 2% FBS. Subsequently, cell suspensions were transferred into the test tubes and kept on ice. The fluorescence in cells was measured immediately after the collection of their suspensions using flow cytometer Sony SA3800 Spectral Cell Analyzer (Sony Biotechnology, San Jose, CA, USA). SA3800 software (Sony Biotechnology, San Jose, CA, USA) was used to evaluate the data.

[1] = MTT proliferation / drug combination assay; type: cell-based, Canine; details: dog, MDCKII-ABCG2 cells; MDCKII-ABCG2; comparative MTT, 48 h; read-out: antiproliferative IC50
Protocol: (§1) The viability MTT assay was employed in several experimental sets, including induction studies, comparative viability assays, and drug combinations. First, 1.3 × 10^4 (MDCKII sublines), 1.2 × 10^4 (A431 sublines), 1.5 × 10^4 (MCF-7), and 1.0 × 10^4 (primary NSCLC explants) cells were seeded in 96-well plates. After seeding, cells were left to refresh in incubator for 24 h. Secondly, the medium was removed, and the serial dilutions of the drugs or drug combinations were added to the cells. Next to these variants, a medium with 40% DMSO and vehicle-containing media were tested as nonviable and unaffected viability controls, respectively. After an additional 48 h of incubation, the cells were washed with 1 × PBS and then treated with 1 mg/mL MTT solution in Opti-MEM. Subsequently, cells were incubated for 60 min under standard conditions. After MTT treatment, generated formazan crystals were solubilized with DMSO for 10 min. Wavelengths of 570 nm (formazan) and 690 nm (background) were used for absorbance measurements using a microplate reader Infinite 200 Pro NanoQuant (Tecan, Männedorf, Switzerland).
(§2) In vitro cell lines (MDCKII and A431) and primary NSCLC explants were seeded (see densities above) in 96-well plates and incubated for 24 h. […] Combined cells were incubated with the tested compounds for 48 h, and subsequently, MTT assay was performed to assess cell viability as described above. Besides IC50-shift analysis, CompuSyn 3.0.1 software (ComboSyn Inc., Paramus, NJ, USA) was used for the additional analysis of obtained data. This software works with the algorithms of the combination index (CI) method of Chou–Talalay, which is frequently used for the accurate quantification of drug combinations’ outcomes. According to the CI method principle, the combination effects were separated into three categories, including synergistic (CI < 0.9), additive (CI between 0.9–1.1), or antagonistic (CI > 1.1) ones.

MDCKII-ABCC1 = assay: MTT proliferation / drug combination assay; type: cell-based, Canine; details: Canis lupus familiaris, comparative MTT, 48 h, read-out: antiproliferative IC50
Protocol: as §1, §2

MDCKII-parent = assay: MTT proliferation / drug combination assay; type: cell-based, Canine; details: Canis lupus familiaris; MDCKII-par; comparative MTT, 48 h; read-out: antiproliferative IC50
Protocol: as §1, §2

A431-ABCC1 = assay: MTT proliferation / drug combination assay; type: cell-based; details: Homo sapiens, comparative MTT, 48 h, read-out: antiproliferative IC50
Protocol: as §1, §2

A431-ABCG2 = assay: MTT proliferation / drug combination assay; type: cell-based; details: Homo sapiens; A431-ABCG2; comparative MTT, 48 h; read-out: antiproliferative IC50
Protocol: as §1, §2

A431-parent = assay: MTT proliferation / drug combination assay; type: cell-based; details: Homo sapiens, A-431; A431 parental; comparative MTT, 48 h; read-out: antiproliferative IC50
Protocol: as §1, §2

A431-ABCB1 = assay: MTT proliferation assay; type: cell-based; details: Homo sapiens, comparative MTT, 48 h, read-out: antiproliferative IC50
Protocol: as §1

ABCG2 = details: Abcg2-knockout mice, MDCKII-ABCG2 cells; cited from earlier work
ABCB1 [2] = target: T1, ABCB1 (Homo sapiens, UniProt P08183); details: 12-days exposure; MCF-10A; cited from earlier work
ABCB1 [3] = target: T1, ABCB1; parameters: expressed in transfected cells; host or cells: MDCKII (canine kidney) subline MDCKII-ABCB1, gift of Dr. Alfred Schinkel; details: Abcb1-knockout mice, MDCKII-ABCB1 cells; cited from earlier work

T1 sequence (P08183 whole entry): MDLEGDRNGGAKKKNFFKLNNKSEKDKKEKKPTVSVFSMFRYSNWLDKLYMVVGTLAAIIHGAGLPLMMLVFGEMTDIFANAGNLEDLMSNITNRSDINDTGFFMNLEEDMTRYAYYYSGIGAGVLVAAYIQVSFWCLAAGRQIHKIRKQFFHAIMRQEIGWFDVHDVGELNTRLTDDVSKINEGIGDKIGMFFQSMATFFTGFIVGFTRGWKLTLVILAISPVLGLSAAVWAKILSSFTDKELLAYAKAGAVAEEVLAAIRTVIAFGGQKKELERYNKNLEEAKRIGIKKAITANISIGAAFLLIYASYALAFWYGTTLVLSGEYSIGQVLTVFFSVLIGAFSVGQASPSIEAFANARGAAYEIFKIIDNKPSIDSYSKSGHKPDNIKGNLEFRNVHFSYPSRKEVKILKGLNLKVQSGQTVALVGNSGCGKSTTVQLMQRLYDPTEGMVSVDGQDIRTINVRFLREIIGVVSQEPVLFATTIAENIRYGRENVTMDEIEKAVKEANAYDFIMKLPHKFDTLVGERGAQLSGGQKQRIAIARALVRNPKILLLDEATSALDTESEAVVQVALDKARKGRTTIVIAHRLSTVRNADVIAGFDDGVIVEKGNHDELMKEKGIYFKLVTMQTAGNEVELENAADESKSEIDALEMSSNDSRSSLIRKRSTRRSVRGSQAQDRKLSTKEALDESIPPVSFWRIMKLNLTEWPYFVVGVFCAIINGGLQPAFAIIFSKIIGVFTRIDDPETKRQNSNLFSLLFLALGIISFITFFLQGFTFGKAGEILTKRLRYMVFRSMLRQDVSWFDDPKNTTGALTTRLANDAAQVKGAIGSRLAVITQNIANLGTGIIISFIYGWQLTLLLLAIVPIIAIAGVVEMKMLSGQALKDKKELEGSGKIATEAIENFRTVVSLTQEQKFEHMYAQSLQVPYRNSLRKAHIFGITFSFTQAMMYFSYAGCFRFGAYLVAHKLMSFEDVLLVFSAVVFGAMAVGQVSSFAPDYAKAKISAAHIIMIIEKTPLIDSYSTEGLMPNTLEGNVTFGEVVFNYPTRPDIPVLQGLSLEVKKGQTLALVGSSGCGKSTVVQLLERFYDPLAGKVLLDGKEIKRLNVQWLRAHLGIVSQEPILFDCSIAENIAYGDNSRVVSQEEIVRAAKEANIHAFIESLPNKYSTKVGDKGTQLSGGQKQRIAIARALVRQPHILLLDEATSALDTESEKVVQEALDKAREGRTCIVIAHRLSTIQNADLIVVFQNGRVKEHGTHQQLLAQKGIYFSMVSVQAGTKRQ

IC50 (A431-ABCC1): 91.5 µM
IC50 (A431-ABCG2): 91.8 µM
IC50 (A431-ABCB1): 92.7 µM
SMILES: Cn1ncnc1[C@H]1c2n[nH]c(=O)c3cc(F)cc(c23)N[C@@H]1c1ccc(F)cc1 [talazoparib, Talazoparib]
effect on accumulations of probe substrate drugs (MDCKII-par cells): did not exhibit any significant effects
IC50 at 48 h [1]: 64.5 µM
IC50 (MDCKII-ABCC1): 66 µM
IC50 (MDCKII-parent): 69.4 µM
IC50 (A431-parent): 86.8 µM
ABCG2 substrate status (ABCG2): not of ABCG2
effect on ABCB1 mRNA (ABCB1 [2]): upregulate
effect on ABCB1 protein level (ABCB1 [2]): fluctuating (concentration-dependent induction or downregulation)
ABCB1 substrate status (ABCB1 [3]): substrate of ABCB1
